Measurements: patent publication US12036228B2, “Treatment of seizure disorders” (Shackelford Pharma Inc., priority 2022, dated 2024)
Several values for one entry are separate records, joined by “and”; a condition that tells them apart may be missing. Identical values can stand only once.

Legend:
Type in all cases: in vivo
[1] = system: GTC seizures in human patient; experiment: Example 2 human patient, Dravet syndrome
Procedure: A patient first started having seizures and was subsequently diagnosed with Dravet syndrome. Initially, they were having clusters of 2 GTC seizures a day for 2 days occurring about every 2 weeks. Keppra was ineffective as were other combinations of anti-epileptic drugs. Several different combinations were tried and by the time they were first seen for evaluation for cannabinoid treatment on Aug. 7, 2014, they were taking Depakote 125 mg BID, Clonazepam 0.5 mg TID, and Versed/Diastat as needed for rescue but was still having clusters of GTC seizures every 2 weeks. The patient had started a CBD product on Jul. 3, 2014 (product analysis: 11.2 mg CBD/gm with 0.38 mg THC/gm at a dose of 0.7 mL TID (unknown concentration per mL), but seizures still were occurring irregularly—primarily GTC occurring in clusters of 1-2 per day every two weeks, rare atonic, and occasional eye-flutters.

[2] = system: seizures / EEG abnormalities in human patient; experiment: Example 8 pediatric patient with atonic seizures, myoclonic seizures and Doose syndrome (24 hour EEG, seizures)
Procedure: They had continued to experience several seizures per day of all types despite multiple combination regimens of prescription anti-seizure medications and a trial of THC-A transdermal patch and CBD (Charlotte's Web) oral tincture and CBD transdermal patches up until the day they were first evaluated for cannabinoid treatment (age 4.5 on Mar. 8, 2016). […] They were then prescribed 1 mg oral THC tincture three times per day. On Mar. 8, 2018, the patient returned for follow-up where it was learned that all cannabinoids had been discontinued. […] The THC-A transdermal patch was restarted at 1.875 mg/day with a reduction in EEG abnormalities to 400/24 hours. Oral THC 2.5 mg BID was then restarted with a further reduction in EEG abnormalities to 20/24 hours. […] Due to the significant reduction in brain pre-seizure activity after restarting THC and concerns that there are effective dosage variations among transdermal products, the patient was then prescribed oral THC 2.5 mg BID which they continue to take.

[3] = system: GTC seizures in human patient; experiment: Example 7 human patient, intractable GTC seizures; details: 10 mg THC with 10 mg CBD orally daily at bedtime, with Trileptal and clonazepam
Excerpt: A patient was first diagnosed with intractable GTC seizures without status epilepticus in 2001.
The patient first presented for cannabinoid treatment on May 24, 2013. They were then a PhD student in economics. The patient's medical history is significant for having a car accident with a concussion and “scarring”. They developed GTC seizures occurring 3 times per month. […] In 2008, they started using recreational cannabis occasionally, but not regularly.

[4] = system: GTC seizures in human patient; experiment: Example 5 human patient, GTC seizures caused by cerebral angioma
Excerpt: A patient first started having GTC seizures in 2007 which were caused by a cerebral angioma. […] The freedom from seizures allowed them to stop taking Lamictal, and the resolution of the medication side effects allowed them to return to work.

[5] = system: GTC seizures in human patients; experiment: THC treatment of several human patients with GTC seizures (responder rate, one-year remission rate, adverse effects); details: for Increase in 1 YR Seizure Remission Rate over expected: expected 5%; for THC-related adverse event: one adult patient
Excerpt: Several human patients commenced treatment with THC after a first visit. More details about the treatment are provided below. The group included 82 total adult patients and 12 total pediatric patients. Of those 94 patients, 34 adult patients and 10 pediatric patients had experienced at least one GTC seizure in the year preceding the first visit. At the time of first visit, 14 of the 34 adult patients and 8 of the 10 pediatric patients had never taken THC. At the time of first visit, five of the 34 adult patients and two of the 10 pediatric patients were consistently/regularly taking THC. At the time of first visit, 15 of the 34 adult patients and none of the 10 pediatric patients were inconsistently/irregularly taking THC or had taken THC at some point in the past and were no longer taking THC.
At the time of first visit, 16 of the 34 adult patients had treatment resistant epilepsy, which means the patients had persistent GTC seizures despite taking two different anti-seizure medications at, or prior to, the first visit. At the time of first visit, all 10 of the pediatric patients had treatment resistant epilepsy.
The first visit means the date when the patient first saw the doctor for evaluation for THC treatment for GTC seizures. Responder rates means the percentage of patients that had at least a 50% reduction in GTC seizure frequency over a one-year treatment period with THC. One-year remission rate means the percentage of patients that experienced no GTC seizures in a one-year period after commencing THC treatment.
All of the 34 adult patients and 10 pediatric patients were taking other anti-seizure medications or had other anti-seizure treatment at the time of the first visit. […] Those anti-seizure medications and other anti-seizure treatments included: lamotrigine, topiramate, topiramate XR, vagus nerve stimulation, phenytoin, valproic acid, zonisamide, benzodiazepine, surgery, levetiracetam, carbamazepine, oxcarbazepine, lacosamide, perampanel, clonazepam, phenobarbial, pregabalin, gabapentin, rufinamide, CBD (e.g., Epidiolex), clobazam, and felbamate. Also, all patients who were using THC oral dosages were using products that included no CBD or products that included CBD in doses well below the therapeutic dose for Epidiolex.
THC Treatment for the 82 adult patients varied. Many of the patients smoked marijuana, so the dosage and/or timing of the dosage was unknown. Because CBD is delivered at sub-therapeutic levels when marijuana is smoked, it is acceptable to attribute any therapeutic effect to THC. The label for the CBD drug Epidiolex includes dosages starting at 5 mg/kg daily for all indications, and increasing to maintenance doses of 10 mg/kg or 20 mg/kg for Lennox-Gestault Syndrome and Dravet Syndrome, and increasing to maintenance doses of 25 mg/kg per day for Tuberous Sclerosis Complex. When 1 gram of cannabis is smoked, it delivers CBD to the lungs in doses well below the therapeutic dose levels prescribed for Epidiolex. Some other patients took unknown dosages of THC orally.

[6] = system: seizures in human patient; experiment: Example 3 human patient, GTC and complex partial seizures
Excerpt: A patient first started having GTC and complex partial (CP) seizures. […] The patient was referred for evaluation for initiation of cannabinoid/THC treatment in March 2014.

[7] = 14 adult patients who had never taken THC prior to first visit

## CCCCCc1cc(O)c2c(c1)OC(C)(C)[C@@H]1CCC(C)=C[C@@H]21 [THC, Delta-9-tetrahydrocannabinol]
[1]; 20 mg CBD+20 mg THC TID regimen
  cognitive function: significantly better
[1]; Depakote+Onfi+stiripentol+5 mg THC HS
  seizure-free duration: 15 months
[1]; THC 5 mg HS, CBD removed
  seizures after THC added back: improvement in the number and severity of all seizure types
[1]; THC applied to the oral mucosa
  behavioral effect when used as rescue medication: no behavioral compromise
[1]; THC applied to the oral mucosa, 6 non-convulsive seizures
  termination of seizures as rescue medication: rapidly terminated
[1]; patient not receiving THC, Apr. 25 to Dec. 3, 2017
  seizures when THC was dropped from the regimen: frequency and severity of all seizure types increased
[1]; two drops THC to gums
  effect as rescue medication: rapid effect
[2]; Oral THC 2.5 mg BID restarted after THC-A patch
  EEG abnormalities: 20 /24 hours
[2]; Oral THC 2.5 mg BID with THC-A patch
  observable seizures: no observable seizures
[3]
  seizures: no seizures since restarting cannabinoids
[4]; only orally administered THC-infused confections and drinks
  seizure status: still seizure-free
[4]; orally administered THC reduced from 150 milligrams to 70 mg at bedtime
  seizure status: continued seizure freedom
[5]; 1.8 mg THC transdermal patch daily+2.5 mg oral THC at bedtime, 5 mg CBD BID, 63.3 kg
  GTC seizure outcome, individual pediatric patient: 50% reduction in GTC seizure rates in a one-year period following THC treatment
[5]; 2-3 mg THC+30 mg CBD orally, BID, 17.3 kg
  GTC seizure outcome, individual pediatric patient: no GTC seizures in a one-year period following THC treatment
[5]; 5-10 mg THC+10-20 mg CBD orally, daily at bedtime, 34.1 kg
  GTC seizure outcome, individual pediatric patient: no GTC seizures in a one-year period following THC treatment
[5]; 12 children
  adverse effects: none experienced adverse effects
[5]; [7]
  1 YR Seizure Remission Rate: 36%
  Responder Rate (at least 50% reduction in GTC seizure frequency over one year): 71%
[5]; 82 adult patients
  Adverse Events: 2% (2/82)
[5]; 82 adults treated with THC (sleepiness; reduced mental clarity)
  THC-related adverse effects: only two patients experienced THC-related adverse effects
[5]; Adult, calculated using the 29% (2/7) remission rate
  Increase in 1 YR Seizure Remission Rate over expected: ~**5.8X
[5]; GTCs and cerebral palsy, CBD 20 mg with 6% THC (1.2 mg) per day orally
  GTC seizure outcome, individual pediatric patient: resolution of all GTC seizure activity
[5]; Pediatric patients (0/13)
  Adverse Events: 0% (0/13)
[5]; Pediatric, calculated using the 37.5% (3/8) remission rate
  Increase in 1 YR Seizure Remission Rate over expected: ~***7.5X
[5]; THC (only), 10 mg/mL, 1-3 mg THC as rescue
  effect as rescue treatment, individual pediatric patient: complete resolution of seizures
[5]; of 34 adult patients
  patients with 50% reduction in GTC seizure rates and no GTC seizures in a one-year period following THC treatment: 15 patients
  patients with 50% reduction in GTC seizure rates but not seizure free for a one-year period following THC treatment: 9 patients
  patients without 50% reduction in GTC seizure rates and not seizure free for a one-year period following THC treatment: 10 patients
[5]; 2-3 mg THC and 38 mg CBD orally TDD
  THC-related adverse event: sleepiness
[5]; unknown amounts of THC orally
  THC-related adverse event: mental unclarity
[5]; same patient, 60-70 mg THC orally TDD in 2 divided doses
  GTC seizure outcome, individual pediatric patient: continued seizure remission
[5]; two patients, 4-12 mg THC TDD
  GTC seizure outcome, individual pediatric patients: no GTC seizures in a one-year period following THC treatment and 50% reduction in GTC seizure rate in a one-year period following THC treatment
[6]; 20 milligrams THC cannabis extract liquid orally in the morning and 5 mg THC content pill in the evening
  seizure status: remained seizure free
[6]; inhaled 16 mg cannabis wax in the morning and oral 20 milligrams THC cannabis extract liquid at night
  seizure status: seizure free
